This assay concerns THP-1 Lucia ISG cells. Kind of assay: ISG-LUC activation assay (ISRE-luciferase assay). The format is cell-based. To be noted: Homo sapiens, THP1-Lucia ISG, read-out: ISG-LUC activation assay score. An excerpt: We have established a robust platform for identifying non-nucleotide small molecule STING agonists. his has been established using a primary assay involving a human THP-1 cell line carrying an IRF-inducible reporter with 5 copies of the IFN signaling response element. Counter screens, involving alternative reporter constructs, rodent cell-based assays, as well as cGAS and STING knock-out cell lines, are used to eliminate luciferase artifacts and ensure human-rodent cross species reactivity, as well as pathway selectivity. Biochemical assays, involving cGAS enzymatic activity and STING protein binding assays, are used to identify the specific target of identified hits.
Tissue culture. Wild-type (cat. no. thpl-isg) and STING KO (cat. no. thpd-kostg) THP-1-Lucia ISG cells were purchased from Invivogen and maintained in growth media consisting of RPMI 1640, 2mM L-glutamine, […], 10% heat-inactivated fetal bovine serum (FBS), 1,000 units/ml penicillin, 1,000 μg/ml streptomycin, 0.25 μg/ml Amphotericin B, and 100 μg/ml zeocin unless otherwise stated.
ISRE-luciferase assay. THP-1 Lucia ISG cells were resuspended in low-serum growth media (2% FBS) at a density of 5×10^5 cells/ml and treated with test article or vehicle (DMSO). 50 μL of cells were seeded into each well of a 384-well white greiner plates and incubated for 24 hours. To evaluate expression of the luciferase reporter, 30 μl of Quanti-luc (Invivogen) detection reagent was added to each well and luminescence was read using an Envision plate reader (Perkin Elmer) set with an integration time of 0.1 seconds.

Setting [1] is: THP-1 Lucia ISG reporter cells, 24 hours, score based upon potency and efficacy relative to reference compound.

From patent US20220332720A1, “BICYCLIC AGONISTS OF STIMULATOR OF INTERFERON GENES STING” (The Scripps Research Institute, priority 2019, published 2022) come the findings set out here.

Like-named read-outs stand apart in the source and are kept apart here. A value given as a limit tells only on which side of the number the result lay.

`COC(=O)c1cc(F)c(F)cc1NC(=O)c1cc2ncccn2n1` [Compound 85]: the EC50 under setting [1] is over 20000 nM.

For the molecule `C#Cc1cc(NC(=O)c2cc(N)c3nnnn3n2)c(C(=O)O)cc1F` [Compound 1, lithium 2-(8-aminotetrazolo[1,5-b]pyridazine-6-carboxamido)-4-ethynyl-5-fluorobenzoate], where the note is “24 h”, the EC50 is under 3000 nM. `O=C1CCn2nc(C(=O)Nc3cc(Cl)c(Cl)cc3C(=O)O)nc2N1` [Compound 23]: the EC50 under setting [1] is over 20000 nM. Same read-out and setting: next, `COC(=O)c1cc(Cl)c(Cl)cc1NC(=O)c1ccn2c(C#N)cnc2n1` [Compound 3, methyl 4,5-dichloro-2-(3-cyanoimidazo[1,2-a]pyrimidine-7-carboxamido)benzoate]: under 900 nM; `C=Cc1cc(NC(=O)c2cc(N)c3nnnn3n2)c(C(=O)O)cc1F` [Compound 5]: over 1000 nM. In the case of `C#Cc1cc(NC(=O)c2ccn3c(-c4ccncc4)nnc3n2)c(C(=O)O)cc1F` [Compound 59], the EC50 under setting [1] was over 20000 nM. The same measure, in the same setting: next, `COc1cc(NC(=O)c2nc3ccc(C(N)=O)nc3[nH]2)c(C(=O)O)cc1F` [Compound 87]: over 20000 nM; `N#Cc1cc(NC(=O)c2cc(N)c3nnnn3n2)c(C(=O)O)cc1F` [Compound 41]: over 1000 nM.

As for `COc1cc(NC(=O)c2ccc3nnnn3n2)c(C(=O)O)cc1F` [Compound 7], the EC50 under setting [1] was under 3000 nM. `O=C(O)c1cc(Cl)c(Cl)cc1NC(=O)c1cccn2cnnc12` [Compound 88]: the EC50 under setting [1] was over 20000 nM. Same read-out and setting: next, `C#Cc1cc(NC(=O)c2ccc3c(C#N)nnn3n2)c(C(=O)OC)cc1F` [Compound 52]: over 1000 nM; `C=Cc1ccc(C(=O)O)c(NC(=O)c2cc(N)c3nnnn3n2)c1` [Compound 16]: over 1000 nM.

As for `COC(=O)c1cc(F)c(OC)cc1NC(=O)c1ccc2c(ncn2C)n1` [Compound 56], the EC50 under setting [1] was over 1000 nM. For the molecule `COC(=O)c1cc(F)c(OC)cc1NC(=O)c1ccc2cnnn2n1` [Compound 10], the EC50 under setting [1] is under 900 nM. Take `O=C(Nc1cc(F)c(F)cc1C(=O)O)c1cc2[nH]cnc2cn1` [Compound 78]: under setting [1], the EC50 is over 1000 nM.

For the molecule `C#Cc1cc(NC(=O)c2ccn3c(S(C)(=O)=O)nnc3n2)c(C(=O)O)cc1F` [Compound 62], the EC50 under setting [1] was over 20000 nM. With `C=C(F)c1cc(NC(=O)c2cc(N)c3nnnn3n2)c(C(=O)O)cc1F` [Compound 26], the EC50 under setting [1] is over 1000 nM. On the same count and under the same terms, next, `C=C(F)c1ccc(C(=O)OC)c(NC(=O)c2cc(N)n3ncnc3n2)c1` [Compound 30]: under 900 nM; `C#Cc1cc(NC(=O)c2ccc3c(C#N)nnn3n2)c(C(=O)O)cc1F` [Compound 13]: over 1000 nM. Still for that read-out and setting: next, `Nc1cc2nnnn2nc1C(=O)Nc1cc(Cl)c(Cl)cc1C(=O)O` [Compound 74]: under 3000 nM.

Turning to `Nc1cc(C(=O)Nc2cc(C3CC3)ccc2C(=O)O)nn2nnnc12` [Compound 31], the EC50 under setting [1] is over 20000 nM. Consider `C#Cc1ccc(C(=O)O)c(NC(=O)c2cc(N)c3nnnn3n2)c1` [Compound 24], for which the EC50 under setting [1] was over 1000 nM. Same read-out and setting: next, `C#Cc1cc(NC(=O)c2cc(N)n3ncnc3n2)c(C(=O)O)cc1F` [Compound 18]: over 1000 nM.

Regarding `C#Cc1cc(NC(=O)c2cc(N)c3[nH]c(C4CC4)nc3n2)c(C(=O)OC)cc1F` [Compound 27], under setting [1], the EC50 is over 20000 nM. Still for that read-out and setting: next, `C=C(F)c1ccc(C(=O)O)c(NC(=O)c2cc(N)c3nnnn3n2)c1` [Compound 66]: under 900 nM; `C#Cc1cc(NC(=O)c2cc(N)c3nnnn3n2)c(C(=O)OC)cc1Cl` [Compound 34]: under 900 nM; `C#Cc1cc(NC(=O)c2ccc3nnnn3n2)c(C(=O)OC)cc1F` [Compound 42]: under 900 nM. For the molecule `C#Cc1cc(NC(=O)c2ccc3c(-c4nnc[nH]4)nnn3n2)c(C(=O)O)cc1F` [Compound 61], the EC50 under setting [1] is over 1000 nM. In the case of `COC(=O)c1cc(F)c(F)cc1NC(=O)c1ccc2nnnn2n1` [Compound 71], under setting [1], the EC50 is over 1000 nM. Same read-out and setting: next, `Nc1cc(C(=O)Nc2cc3ccccc3cc2C(=O)O)nn2nnnc12` [Compound 29]: over 20000 nM.
